The test system of this test is HCT116. As to conditions: 72 h. In a few lines:
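HCT116 cells went into 1536-well plates at 250 per well. CellTiter-Glo luminescence was expressed relative to vehicle (0%) and positive control (-100%) and then pattern-corrected. Both IC50 and maximal efficacy were taken from four-parameter Hill fits.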

Structures can show the parent of a compound that is named as a salt.

Results on 27 molecules are retold here after the supplement of paper PMC12137928.

Regarding `O=C(O)COc1nn(Cc2ccccc2)c2ccccc12` [Bendazac sodium], the IC50 cell viability was greater than 45.8 µM (ICRF193 0 nM) and greater than 45.8 µM (ICRF193 200 nM).

For `Cc1ccccc1/N=N/c1ccc(/N=N/c2c(O)ccc3ccccc23)c(C)c1` [C.I. Solvent Red 24], the IC50 cell viability is, setting by setting: (ICRF193 0 nM) greater than 45.8 µM; (ICRF193 200 nM) greater than 45.8 µM.

Regarding `CN1CCCN=C1COC(=O)C(O)(c1ccccc1)C1CCCCC1` (centres undefined) [Oxyphencyclimine hydrochloride], the IC50 cell viability is greater than 45.8 µM (ICRF193 0 nM) and greater than 45.8 µM (ICRF193 200 nM).

Consider `C[C@]12CC[C@@H]3c4ccc(OS(=O)(=O)O)cc4CC[C@H]3[C@@H]1CCC2=O` [ESTROPIPATE], for which the IC50 cell viability was greater than 45.8 µM (ICRF193 0 nM) and greater than 45.8 µM (ICRF193 200 nM).

Regarding `CCN(CCCCOC(=O)c1ccc(OC)c(OC)c1)C(C)Cc1ccc(OC)cc1` (centres undefined) [Mebeverine hydrochloride], the IC50 cell viability (ICRF193 0 nM) was greater than 45.8 µM and the IC50 cell viability (ICRF193 200 nM) was greater than 45.8 µM.

In turn, `Cn1c(NCCN(CCO)CCCc2ccc([N+](=O)[O-])cc2)cc(=O)n(C)c1=O` [Nifekalant] came in with an IC50 cell viability (ICRF193 0 nM) greater than 45.8 µM and an IC50 cell viability (ICRF193 200 nM) greater than 45.8 µM.

The molecule `C=CCCCCCCCCC(=O)[O-].C=CCCCCCCCCC(=O)[O-].[Zn+2]` [ZINC UNDECYLENATE] showed an IC50 cell viability (ICRF193 0 nM) greater than 45.8 µM and an IC50 cell viability (ICRF193 200 nM) greater than 45.8 µM.

Turning to `COC(=O)C1=C(C)NC(C)=C(C(=O)OCCc2ccc(N3CCN(C(c4ccccc4)c4ccccc4)CC3)cc2)C1c1cccc([N+](=O)[O-])c1` (centres undefined) [Watanidipine], the IC50 cell viability is, setting by setting: (ICRF193 0 nM) greater than 45.8 µM; (ICRF193 200 nM) greater than 45.8 µM.

Turning to `OCCN1CCN(CCC=C2c3ccccc3Sc3ccc(Cl)cc32)CC1` [Zuclopenthixol (-)-10-Camphorsulfonic Acid Salt], the IC50 cell viability (ICRF193 0 nM) was greater than 45.8 µM and the IC50 cell viability (ICRF193 200 nM) was greater than 45.8 µM.

Take `CCOC(=O)[C@H](CCc1ccccc1)N[C@@H](C)C(=O)N1CCC[C@H]1C(=O)O` [Enalapril maleate]: the IC50 cell viability is greater than 45.8 µM (ICRF193 0 nM) and greater than 45.8 µM (ICRF193 200 nM).

`COC(=O)[C@@H]1CC2=CC(=O)CC[C@]2(C)[C@@]23O[C@@H]2C[C@@]2(C)[C@@H](CC[C@@]24CCC(=O)O4)[C@H]13` [Eplerenone] came in with an IC50 cell viability (ICRF193 0 nM) greater than 45.8 µM and an IC50 cell viability (ICRF193 200 nM) greater than 45.8 µM.

Regarding `Cl/C=C\C[N+]12CN3CN(CN(C3)C1)C2`, the IC50 cell viability was greater than 45.8 µM (ICRF193 0 nM) and greater than 45.8 µM (ICRF193 200 nM).

Regarding `CC(C)(O/N=C(\C(=O)N[C@@H]1C(=O)N2C(C(=O)[O-])=C(C[n+]3ccccc3)CS[C@H]12)c1csc(N)n1)C(=O)O` [Ceftazidime], the IC50 cell viability runs as follows: (ICRF193 0 nM) greater than 45.8 µM; (ICRF193 200 nM) greater than 45.8 µM.

`NS(=O)(=O)c1ccc(N2CCCCS2(=O)=O)cc1` [Sulthiame] yielded an IC50 cell viability (ICRF193 0 nM) greater than 45.8 µM and an IC50 cell viability (ICRF193 200 nM) greater than 45.8 µM.

With `CC(=O)Nc1c(I)c(C(=O)N[C@H]2C(O)O[C@H](CO)[C@@H](O)[C@@H]2O)c(I)c(N(C)C(C)=O)c1I` (some centres undefined) [Metrizamide], the IC50 cell viability was greater than 45.8 µM (ICRF193 0 nM) and greater than 45.8 µM (ICRF193 200 nM).

For `CNC(=O)c1c(I)c(NC(C)=O)c(I)c(C(=O)O)c1I` [Iothalamate sodium], the IC50 cell viability is, setting by setting: (ICRF193 0 nM) greater than 45.8 µM; (ICRF193 200 nM) greater than 45.8 µM.

Take `CC(=O)N[C@@H](Cc1ccc(O)cc1)C(=O)O` [N-Acetyl-L-tyrosine]: the IC50 cell viability by setting is: (ICRF193 0 nM) greater than 45.8 µM; (ICRF193 200 nM) greater than 45.8 µM.

Regarding `Cc1cc(OI)c(C(C)C)cc1-c1cc(C(C)C)c(OI)cc1C` [Thymol iodide], the IC50 cell viability is greater than 45.8 µM (ICRF193 0 nM) and greater than 45.8 µM (ICRF193 200 nM).

As to `Cc1cccc(Cc2c[nH]cn2)c1C` [Detomidine hydrochloride], the IC50 cell viability was greater than 45.8 µM (ICRF193 0 nM) and greater than 45.8 µM (ICRF193 200 nM).

Regarding `CCCCCCCN(CC)CCCC(O)c1ccc(NS(C)(=O)=O)cc1` (centres undefined) [Ibutilide fumarate], the IC50 cell viability was greater than 45.8 µM (ICRF193 0 nM) and greater than 45.8 µM (ICRF193 200 nM).

For the molecule `N#C/C(=C1/SCC(c2ccccc2Cl)S1)n1ccnc1` (centres undefined) [Lanoconazole], the IC50 cell viability is, setting by setting: (ICRF193 0 nM) greater than 45.8 µM; (ICRF193 200 nM) greater than 45.8 µM.

Regarding `CCOP(=O)(OCC)C(C)NC(=O)N(CCCl)N=O` (centres undefined) [Fotemustine], the IC50 cell viability reads like this: (ICRF193 0 nM) greater than 45.8 µM; (ICRF193 200 nM) greater than 45.8 µM.

In the case of `CN1CCN(c2c(F)cc3c(=O)c(C(=O)O)cn4c3c2OCN4C)CC1` [Marbofloxacin], the IC50 cell viability is greater than 45.8 µM (ICRF193 0 nM) and greater than 45.8 µM (ICRF193 200 nM).

Turning to `O=C1OCCN1/N=C/c1ccc([N+](=O)[O-])o1` [Furazolidone], the IC50 cell viability was greater than 45.8 µM (ICRF193 0 nM) and greater than 45.8 µM (ICRF193 200 nM).

On to `N[C@@H](Cc1ccc(N(CCCl)CCCl)cc1)C(=O)O` [Melphalan], for which the IC50 cell viability by setting is: (ICRF193 0 nM) greater than 45.8 µM; (ICRF193 200 nM) greater than 45.8 µM.

`CCOc1ccc2nc(S(N)(=O)=O)sc2c1` [Ethoxzolamide] gave an IC50 cell viability (ICRF193 0 nM) greater than 45.8 µM and an IC50 cell viability (ICRF193 200 nM) greater than 45.8 µM.

In the case of `OC[C@H]1OC(O)[C@H](O)[C@@H](O)[C@@H]1O` (some centres undefined) [Dextrose], the IC50 cell viability is, setting by setting: (ICRF193 0 nM) greater than 45.8 µM; (ICRF193 200 nM) greater than 45.8 µM.
